Experimental data reported in PMC12174747, “Ligand Screening and Discovery Using Cocktail Soaking and Automated Microcrystal Electron Diffraction” (Chemmedchem, 2025).
Where a name gives a salt, the structure may show the parent alone. Read-outs that look alike come from different tables or passages of the source.

How the values were obtained:
thermolysin = target: T1, thermolysin (Bacillus thermoproteolyticus, UniProt P00800); test: MicroED crystal structure (cocktail and individual soaking) and microscale thermophoresis; format: binding
T1 construct: gene npr
T1 sequence (P00800 233-548): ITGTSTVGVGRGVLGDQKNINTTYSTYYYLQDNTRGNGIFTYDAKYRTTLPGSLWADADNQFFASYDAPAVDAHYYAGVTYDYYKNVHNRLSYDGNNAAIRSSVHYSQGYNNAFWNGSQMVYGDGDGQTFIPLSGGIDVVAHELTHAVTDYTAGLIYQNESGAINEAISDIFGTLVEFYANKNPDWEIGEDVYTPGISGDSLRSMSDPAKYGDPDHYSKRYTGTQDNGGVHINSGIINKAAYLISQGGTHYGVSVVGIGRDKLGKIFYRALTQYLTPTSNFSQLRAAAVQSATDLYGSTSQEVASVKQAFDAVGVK

proteinase K = target: T2, proteinase K (Parengyodontium album, UniProt P06873); test: as above; format: binding
T2 construct: gene PROK
T2 sequence (P06873 106-384): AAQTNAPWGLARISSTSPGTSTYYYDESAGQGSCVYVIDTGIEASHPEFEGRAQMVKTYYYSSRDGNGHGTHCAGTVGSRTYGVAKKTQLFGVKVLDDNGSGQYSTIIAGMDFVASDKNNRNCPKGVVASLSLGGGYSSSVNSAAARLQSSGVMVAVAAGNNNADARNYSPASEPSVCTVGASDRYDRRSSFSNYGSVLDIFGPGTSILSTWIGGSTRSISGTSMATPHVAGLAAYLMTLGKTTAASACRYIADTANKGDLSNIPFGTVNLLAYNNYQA

## CC(C)C[C@H](NP(=O)(O)O[C@@H]1O[C@@H](C)[C@H](O)[C@@H](O)[C@H]1O)C(=O)N[C@@H](Cc1c[nH]c2ccccc12)C(=O)O [compound 1, phosphoramidon disodium salt]
thermolysin
  Kd: 0.345 µM

## O=C(O)CNC(=O)C(CS)Cc1ccccc1 (stereo not drawn) [compound 2, thiorphan]
thermolysin; read-out: Kd
  Kd: 4 µM

## benzenesulfonyl fluoride hydrochloride [compound 4]
Proteinase K
  Kd: 260 µM
